Results on 11 molecules are retold here after patent US20230102554A1 (GB002, INC., priority 2019, published 2023).

One may read the IC50 as the midpoint of a concentration-inhibition curve.

The target in test [1] is T1, Human PDGFRβ, cytoplasmic domain (GST-PDGFRβ) (Homo sapiens, UniProt P09619).
T1 construct: made in house
The test is described as follows: Human PDGFRβ biochemical inhibition assay (off-chip Mobility Shift Assay). An outline of the steps:
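GST-tagged cytoplasmic domain (aa 557-1106) from baculovirus was incubated 1 h at room temperature with compound, CSKtide, ATP at Km and Mg²⁺ in HEPES buffer, pH 7.5. Phosphorylated and unphosphorylated peptide were separated by off-chip mobility shift, and the product ratio P/(P+S) gave percent inhibition.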

The target of test [2] is T2, Human PDGFRα, cytoplasmic domain (GST-PDGFRα) (Homo sapiens, UniProt P16234).
T2 construct: made in house
T2 sequence (P16234 550-1089 T674I): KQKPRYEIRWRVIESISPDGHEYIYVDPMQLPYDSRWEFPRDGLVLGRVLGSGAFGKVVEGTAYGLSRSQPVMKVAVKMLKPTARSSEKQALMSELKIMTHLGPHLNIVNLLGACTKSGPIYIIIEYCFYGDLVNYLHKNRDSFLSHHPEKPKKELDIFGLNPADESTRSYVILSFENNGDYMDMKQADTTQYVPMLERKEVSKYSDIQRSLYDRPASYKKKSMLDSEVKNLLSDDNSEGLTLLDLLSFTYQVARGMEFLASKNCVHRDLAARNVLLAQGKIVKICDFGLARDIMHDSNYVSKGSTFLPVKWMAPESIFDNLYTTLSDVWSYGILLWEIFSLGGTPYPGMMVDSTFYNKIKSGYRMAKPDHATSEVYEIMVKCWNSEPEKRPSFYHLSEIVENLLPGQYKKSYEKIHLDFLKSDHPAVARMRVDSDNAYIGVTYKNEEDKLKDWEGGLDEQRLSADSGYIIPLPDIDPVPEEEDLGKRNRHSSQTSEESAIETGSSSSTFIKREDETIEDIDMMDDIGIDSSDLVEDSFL
The test is described as follows: Human PDGFRα biochemical inhibition assay (off-chip Mobility Shift Assay).

T1 sequence (P09619 with tags, fused parts or gaps): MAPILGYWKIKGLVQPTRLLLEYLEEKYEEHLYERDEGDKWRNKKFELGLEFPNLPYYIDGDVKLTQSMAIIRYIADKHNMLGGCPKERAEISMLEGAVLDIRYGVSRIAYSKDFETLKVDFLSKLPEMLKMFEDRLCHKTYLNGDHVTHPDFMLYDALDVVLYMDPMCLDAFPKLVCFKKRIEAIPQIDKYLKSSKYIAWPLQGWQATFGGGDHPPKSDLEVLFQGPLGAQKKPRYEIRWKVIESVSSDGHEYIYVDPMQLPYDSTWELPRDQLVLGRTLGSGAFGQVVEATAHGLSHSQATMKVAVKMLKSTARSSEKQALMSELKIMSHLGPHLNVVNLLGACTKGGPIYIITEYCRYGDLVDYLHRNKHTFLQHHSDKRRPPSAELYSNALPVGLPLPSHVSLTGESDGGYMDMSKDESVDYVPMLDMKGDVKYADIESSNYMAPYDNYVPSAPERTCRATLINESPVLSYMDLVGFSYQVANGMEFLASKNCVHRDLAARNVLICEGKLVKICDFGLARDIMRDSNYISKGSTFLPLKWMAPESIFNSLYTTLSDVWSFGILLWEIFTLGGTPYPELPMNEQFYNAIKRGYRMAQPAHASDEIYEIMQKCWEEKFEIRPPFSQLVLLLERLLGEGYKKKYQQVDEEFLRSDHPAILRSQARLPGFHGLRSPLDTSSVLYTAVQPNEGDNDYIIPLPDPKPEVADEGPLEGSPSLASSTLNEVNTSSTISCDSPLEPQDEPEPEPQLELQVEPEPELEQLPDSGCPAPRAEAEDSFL

As to `CCn1cc2ncc(N[C@@H](C)c3cc(NC(=O)Cc4ccc(C5CCC5)nc4)ccc3C)nc2n1` [Compound 672, (S)-2-(6-cyclobutylpyridin-3-yl)-N-(3-(1-((2-ethyl-2H-pyrazolo[3,4-b]pyrazin-6-yl)amino)ethyl)-4-methylphenyl) acetamide], the concentration for half-maximal inhibition (IC50) in test [1] is no less than 1000 nM; in test [2], less than 300 nM.

Take `CCn1cc2ncc(N[C@@H](C)c3cc(NC(=O)Cc4cncc(Cl)c4)ccc3C)nc2n1` [Compound 673, (S)-2-(5-chloropyridin-3-yl)-N-(3-(1-((2-ethyl-2H-pyrazolo[3,4-b]pyrazin-6-yl)amino)ethyl)-4-methylphenyl)acetamide]: the IC50 in test [1] and in test [2] was less than 300 nM throughout.

For the molecule `CCn1cc2ncc(N[C@@H](C)c3cc(NC(=O)Cc4ccc(F)c(C)n4)ccc3F)nc2n1` [Compound 674, (S)-N-(3-(1-((2-ethyl-2H-pyrazolo[3,4-b]pyrazin-6-yl)amino)ethyl)-4-fluorophenyl)-2-(5-fluoro-6-methylpyridin-2-yl) acetamide], the IC50 in test [1] and in test [2] was less than 300 nM each time.

For `CCn1cc2ncc(N[C@@H](C)c3cc(NC(=O)Cc4ccc(F)c(C)n4)ccc3C)nc2n1` [Compound 675, (S)-N-(3-(1-((2-ethyl-2H-pyrazolo[3,4-b]pyrazin-6-yl)amino)ethyl)-4-methylphenyl)-2-(5-fluoro-6-methylpyridin-2-yl)acetamide], the IC50 in test [1] and in test [2] was less than 300 nM throughout.

On to `CCn1cc2ncc(N[C@@H](C)c3cccc(NC(=O)Cc4cc(Cl)ccn4)c3)nc2n1` [Compound 676, (S)-2-(4-chloropyridin-2-yl)-N-(3-(1-((2-ethyl-2H-pyrazolo[3,4-b]pyrazin-6-yl)amino)ethyl)phenyl)acetamide], for which the 50% inhibitory concentration (IC50) is no less than 1000 nM in test [1] and 300 to 1000 nM in test [2].

Turning to `CCn1cc2ncc(N[C@@H](C)c3cc(NC(=O)Cc4cc(Cl)ccn4)ccc3C)nc2n1` [Compound 677, (6)-2-(4-chloropyridin-2-yl)-N-(3-(1-((2-ethyl-2H-pyrazolo[3,4-b]pyrazin-6-yl)amino)ethyl)-4-methylphenyl)acetamide], the half-inhibitory concentration (IC50) in test [1] and in test [2] was less than 300 nM each time.

As to `CCn1cc2ncc(N[C@@H](C)c3cccc(NC(=O)Cc4cc(C)ccn4)c3)nc2n1` [Compound 678, (S)-N-(3-(1-((2-ethyl-2H-pyrazolo[3,4-b]pyrazin-6-yl)amino)ethyl)phenyl)-2-(4-methylpyridin-2-yl)acetamide], the results for the IC50 in test [1] and in test [2] were no less than 1000 nM and less than 300 nM, respectively.

Consider `CCn1cc2ncc(N[C@@H](C)c3cc(NC(=O)Cc4cc(C)ccn4)ccc3C)nc2n1` [Compound 679, (S)-N-(3-(1-((2-ethyl-2H-pyrazolo[3,4-b]pyrazin-6-yl)amino)ethyl)-4-methylphenyl)-2-(4-methylpyridin-2-yl) acetamide], for which the IC50 in test [1] and in test [2] was less than 300 nM each time.

As to `CCn1cc2ncc(N[C@@H](C)c3cc(NC(=O)Cc4ccc(C)c(N5CCN(C)CC5)c4)ccc3C)nc2n1` [Compound 680, (S)-N-(3-(1-((2-ethyl-2H-pyrazolo[3,4-b]pyrazin-6-yl)amino)ethyl)-4-methylphenyl)-2-(4-methyl-3-(4-methylpiperazin-1-yl)phenyl) acetamide], the IC50 in test [1] and in test [2] was less than 300 nM in each case.

`CCn1cc2ncc(N[C@@H](C)c3cccc(NC(=O)Cc4ccc(Cl)cn4)c3)nc2n1` [Compound 681, (S)-2-(5-chloropyridin-2-yl)-N-(3-(1-((2-ethyl-2H-pyrazolo[3,4-b]pyrazin-6-yl)amino)ethyl)phenyl)acetamide]: the 50% inhibitory concentration (IC50) in test [1] is no less than 1000 nM; in test [2], less than 300 nM.

On to `CCn1cc2ncc(N[C@@H](C)c3cccc(NC(=O)Cc4ccc(C5CC5)cn4)c3)nc2n1` [Compound 682, (S)-2-(5-cyclopropylpyridin-2-yl)-N-(3-(1-((2-ethyl-2H-pyrazolo[3,4-b]pyrazin-6-yl)amino)ethyl)phenyl)acetamide], for which the IC50 was no less than 1000 nM in test [1] and 300 to 1000 nM in test [2].
